Experimental data reported in patent publication US20230381117A1, “ANTI-OBESITY POTENTIAL OF BISDEMETHOXYCURCUMIN COMPOSITIONS” (SAMI-SABINSA GROUP LIMITED, priority 2020, published 2023).
Like-named read-outs stand apart in the source and are kept apart here.

What was measured:
[1] = tested on: Mouse 3T3-L1 pre-adipocytes; test: Adipogenesis inhibition, lipid accumulation by Oil red O staining in cultured 3T3L1; type: cell-based
Procedure: Stock was diluted 1000 times in DMEM to get 10 μg/ml final concentration and serially diluted. Insulin (Hi Media) was bought as a solution at a concentration of 20 mg/ml. This was diluted to 1 μg/ml in DMEM. IBMX (Sigma)—Stock of 5 mM was prepared in DMEM, and diluted 10 times to be used at a final concentration of 0.5 mM. Dexamethasone (Sigma)—A stock of 10 μM was prepared in DMEM and diluted 40 times to get a final concentration of 0.25 μM. Mouse 3T3-L1 pre-adipocytes were cultured in DMEM media containing 25 mM glucose, 10% heat-inactivated new born calf serum (NBCS) and antibiotics at 37° C. and 5% CO2. When the cells were 70-80% confluent, they were trypsinized, washed and seeded in 48 well plates at a density of 3×10^4 cells per well. […] After differentiation for two days, The media was replaced with DMEM containing insulin (1 μg/mL) and different concentrations of test ingredients on alternate days until the cells were processed after 3rd progression. Untreated cells grown in differentiation media and undifferentiated cells grown in NBCS media were taken as adipogenesis positive and negative controls for the experiment. Quantification of triglycerides accumulated in adipocytes was done by Oil red O staining.

[2] = tested on: high fat diet induced obesity in C57 mice; test: High fat diet induced obesity in C57 mice; type: in vivo, C57/BL6 mice; details: high fat diet fed mice, 50 mg/kgbw; FIG. 6
Procedure: Animals-C57/BL6 mice, 6-8 weeks of age and 8 animals/Group (4 Male and 4 Female) were used for the study. […] The temperature and relative humidity was recorded once daily. Feed: […] Water was provided along with High Fat Diet to the animals throughout the acclimatization and experimental period. Water from water filter cum purifier was provided in animal feeding bottle with stainless steel sipper tubes. The design of the study groups is depicted in table 4. [table] Body weight of the animals was recorded in all the days of experimental period. At the end of the experimental period, the animals were sacrificed by cervical dislocation. Blood was collected and Serum was separated by centrifugation and used for the analysis of biochemical parameters. […] The following parameters were measured in the above groups: • Measurement of Body weight: Determination of Organ Weight13 Liver, Visceral adipose tissue (VAT) and subcutaneous adipose tissue (SAT) • Estimation of Cholesterol (Zak et al., (2009) A new method for the determination of serum cholesterol. J Clin Endocrinol Metab., 94(7), 2215-2220) • Estimation of Triglycerides (Foster L. B and Dunn R. T. (1973) Stable reagents for determination of serum triglycerides by a colorimetric Hantzsch condensation method. Clin Chem, 196, 338-340). • Estimation of HDL Cholesterol (Burstein et al., (1970). Determination of HDL cholesterol. […]

[3] = Table 2B, 1.5625 μg/ml, 3T3-L1, Oil red O, read-out: Adipogenesis inhibition
[4] = Table 2B, 3.125 μg/ml, 3T3-L1, Oil red O, read-out: Adipogenesis inhibition
[5] = 3T3-L1, read-out: Adipogenesis inhibition

| SMILES | inhibition at 1.5625 µg/mL [1, 3] | inhibition at 3.125 µg/mL [1, 4] | Adverse effect on weight of the liver / critical organs [2] | inhibition at 1.5625 µg/mL [1, 5] | inhibition at 3.125 µg/mL [1, 5] |
| --- | --- | --- | --- | --- | --- |
| O=C(/C=C/c1ccc(O)cc1)CC(=O)/C=C/c1ccc(O)cc1 [BDMC, bisdemethoxycurcumin] | 20.2% | 16.2% | does not induce any adverse effects |  |  |
| COc1cc(/C=C/C(=O)CC(=O)/C=C/c2ccc(O)c(OC)c2)ccc1O [Curcumin, curcumin] | 11.6% | 11.1% |  |  |  |
| COc1cc(/C=C/C(O)=C/C(=O)/C=C/c2ccc(O)cc2)ccc1O [DMC, demethoxycurcumin] |  |  |  | 21% | 19.4% |
